Measurements reported in US10822664B2, “Sequence-specific detection and phenotype determination” (priority 2015, dated 2020).

Legend:
[1] = system: E. coli 1289011, 1289012, 1289014, and 1289018; assay: AST meropenem/peptide-PNA disk diffusion testing; format: cell-based; settings: for zone diameter compared to that of meropenem alone: 10 μg meropenem disk including peptide-PNA; for meropenem disk diffusion result: 10 μg meropenem disk, FIG. 4
Description: Disk diffusion testing is conducted following CLSI-M02 (12) and interpreted following M100-S22 (13). Briefly, for testing each bacterium for susceptibility to meropenem, a Mueller-Hinton agar (MHA) plates are inoculated using a sterile cotton swab dipped into a suspension of a culture of bacteria at a 0.5 McFarland standard such that the entire surface of the MHA is covered. A 10 μg meropenem disk is applied to the surface of the inoculated plate and the plate is incubated at 35° C. in ambient air for 16 to 18 hours. The strain of bacteria is determined to be susceptible to meropenem if the diameter of the zone of inhibition around the meropenem disk is ≥23 mm and resistant to meropenem if the zone diameter is ≤19 mm.
The second row of FIG. 4 depicts the typical meropenem disk diffusion results for the E. coli strains where 1289011, 1289012, and 1289014 are CRE and 1289018 is CSE.
To determine the specific mechanism linked to the meropenem-resistant phenotype, disk diffusion testing is conducted with 10 μg meropenem disks including blaKPC-3- and blaNDM-1-peptide-PNA. If the peptide-PNA inhibits the specific carbapenemase linked to the meropenem resistance in the E. coli strain, then the zone diameter observed will be […] when compared to the zone diameter of the strain when exposed to a disk containing only meropenem.

[2] = system: E. coli 1289011, 1289012, 1289014, and 1289018; assay: Peptide-PNA cell-reporter AST assay (Enterobacteriaceae reporter); format: cell-based
Description: In this example, the AST technique described in Example 2 is extended to AST testing based on cell-reporter assays. An Enterobacteriaceae cell reporter as described in PCT/US2014/026536, Example 1 is employed and the assay is run as follows. Briefly, cultures of E. coli 1289011, 1289012, 1289014, and 1289018 are prepared and used to inoculate wells of a microwell plate containing 50 μL of LB with 50 μL of inoculum such that each well receives 10^4 CFU of each strain of bacteria. A set of wells contain no additional additives, another set of wells contain 5 μg/mL of meropenem, another set of wells contain 5 μg/mL of meropenem and blaKPC-3-peptide-PNA, another set of wells contain 5 μg/mL of meropenem and blaNDM-1-peptide-PNA, and another two set of wells contain only blaKPC-3 or blaNDM-1 peptide-PNA, respectively. All wells also receive 100 μL of the Enterobacteriaceae reporter. The samples are then incubated at 30° C. for 2 hours and then the samples are assayed for luminescence as described in Example 1.

[3] = system: E. coli; assay: Effect of murA PNA on growth (OD600) of E. coli; format: cell-based; settings: murA PNA 4.5 μM in LB; OD600 over 8 hours; FIG. 1
Description: (§1) Isolates of E. coli and K. pneumoniae were grown overnight in LB at 37° C. and sub-cultured the next day at a 1:100 dilution into fresh LB and grown to an optical density at 600 nm (OD600) of 0.2. Inoculums of each strain of approximately 10^4 CFU of each species of bacteria were added to separate wells of a microplate each containing 50 μL of LB or LB with murA PNA at a final concentration of 4.5 μM. OD600 readings were measured over a period of 8 hours to assess growth of PNA-treated and PNA-untreated cells.

[4] = system: K. pneumoniae; assay: Effect of murA PNA on growth (OD600) of K. pneumoniae; format: cell-based; settings: murA PNA 4.5 μM in LB; OD600 over 8 hours; FIG. 2
Description: as §1

[5] = system: E. coli; assay: Enterobacteriaceae luminescent-reporter NRTP assay with murA PNA, E. coli; format: cell-based; settings: murA PNA 4.5 μM, 30° C. for 2 hours, FIG. 3
Description: (§2) Isolates of E. coli and K. pneumoniae were grown overnight in LB at 37° C. and sub-cultured the next day at a 1:100 dilution into fresh LB and grown to an OD600 of 0.2. Inoculums of each strain of approximately 10^4 CFU of each species of bacteria were added to separate wells of a microplate each containing 50 μL of LB or LB with murA PNA at a final concentration of 4.5 μM. All wells subsequently received 100 uL of an Enterobacteriaceae luminescent-reporter non-replicative transduction particle as described in PCT/US2014/026536, Example 1 and the samples were incubated at 30° C. for 2 hours. After the incubation period, the plates were assayed for luminescence using a Molecular Devices SpectraMax L microplate luminometer in which a solution of tridecanal was injected into each well as luminescence readings were taken.

[6] = system: K. pneumoniae; assay: Enterobacteriaceae luminescent-reporter NRTP assay with murA PNA, K. pneumoniae; format: cell-based; settings: murA PNA 4.5 μM, 30° C. for 2 hours, FIG. 3
Description: as §2

[7] = system: E. coli 1289018, 1289023, 1289027, and 1289011; assay: CRISPR/Cas9 cell-reporter AST assay; format: cell-based
From the text: Enterobacteriaceae cell reporters as described in PCT/US2014/026536, Example 1 are designed with reporter plasmids that also carry single-guide[14] CRISPR/Cas9 systems with CRISPR loci that carry sequences targeting blaNDM-1 and blaSHV-18 genes (Table 1, SEQ ID NOs 11 & 13) a carbapenem resistance and extended β-lactam resistance gene, respectively. The reporter plasmid pGWP10001 is modified to include the cas9 gene, tracrRNA under the control of the PL(tetO-1) promoter, and a CRISPR cloning site, and CRISPR loci are designed to target the blaNDM-1 (SEQ ID NO 4) and blaSHV-18 (SEQ ID NO 5) genes and each are cloned into pGWP10001/CRISPR/Cas9 vectors to generate reporter plasmids that simultaneously target the blaNDM-1 and blaSHV-18 genes.
The vectors are used to generate non-replicative transduction particles carrying each plasmid and these are employed in a reporter system for determining the mechanism responsible to β-lactam non-susceptibility. Briefly, cultures of E. coli 1289018 (blaNDM-1, blaSHV-18-negative), 1289023 (blaNDM-1-positive), 1289027 (blaSHV-positive), and 1289011 (blaVIM-positive) are prepared and used to inoculate wells of a microwell plate containing 50 μL of LB with 50 μL of inoculum such that each well receives 10^4 CFU of each strain of bacteria. To these wells 100 μL of the following is added: a set of wells contain 5 μg/mL of meropenem and blaNDM-1-targetting NRTP, another set of wells contain 5 μg/mL of meropenem and blaSHV-18-NRTP, another set of wells contain 5 μg/mL of ceftazidime and blaNDM-1-targetting NRTP, and another set of wells contain 5 μg/mL of ceftazidime and blaSHV-18-NRTP. The samples are then incubated at 30° C. for 2 hours and then the samples are assayed for luminescence as described in Example 1.

[8] = system: Enterococcus spp.; assay: VRE cell-reporter assay (Enterococcus reporter); format: cell-based, E. faecalis, E. faecium, E. casseliflavus; settings: 5 μg/mL vancomycin, FIG. 7 column 2
From the text: In this example an Enterococcus cell reporter is employed in combination with vancomycin and antisense molecules targeting vanC-2 gene expression. The assay allows for the detection of VRE and discrimination from vancomycin-sensitive Enterococcus (VSE) and Enterococcus expressing the vanC-2 gene and not the vanA or vanB genes. The Enterococcus reporter is designed to cause Enterococcus spp. to produce a detectable signal. A Peptide-PNA is designed to target vanC-2 transcripts.
Briefly, cultures of VSE E. faecalis 1259012, vanA-positive VRE E. faecalis 1259016, VSE E. faecium 1269011, vanB-positive VRE E. faecium 1269014, and vanC-2-positive vancomycin non-susceptible E. casseliflavus 1279015 are prepared and used to inoculate wells of a microwell plate containing 50 μL of LB with 50 μL of inoculum such that each well receives 10^4 CFU of each strain of bacteria. A set of wells contains no additional additives, another set of wells contains 5 μg/mL of vancomycin, and another set of wells contains 5 μg/mL of vancomycin and vanC-2-peptide-PNA. All wells also receive 100 μL of the Enterococcus reporter. The samples are then incubated at 37° C. for 2 hours and then the samples are assayed for luminescence as described in Example 1.

[9] = E. coli 1289011, 5 μg/mL meropenem and peptide-PNA
[10] = E. coli 1289012, 5 μg/mL meropenem and peptide-PNA
[11] = E. coli 1289014, 5 μg/mL meropenem and peptide-PNA
[12] = E. coli 1289018, 5 μg/mL β-lactam, regardless of which NRTP, FIG. 6 row 1

Compound | zone diameter compared to that of meropenem alone ([1]; E. coli 1289011) | zone diameter compared to that of meropenem alone ([1]; E. coli 1289012) | zone diameter compared to that of meropenem alone ([1]; E. coli 1289014) | reporter assay signal [2, 9] | reporter assay signal [2, 10] | reporter assay signal [2, 11] | inhibition in reporter assay [7, 12] | also measured
blaNDM-1 peptide-PNA: PNA (SEQ ID NO 3) targeting the TIR of blaNDM-1, conjugated to the peptide KFFKFFKFFK (TCAAGTTTTCC; all peptide nucleic acid (PNA); further chemistry not fully specified) | not reduced | not reduced | reduced | continues to produce a positive signal | continues to produce a positive signal | no longer produces a positive signal |  | 
KFFKFFKFFK-eg-ccatttagtt (CCATTTAGTT; all peptide nucleic acid (PNA); further chemistry not fully specified) [murA PNA] |  |  |  |  |  |  |  | growth of E. coli [3]: compromised; growth of K. pneumoniae [4]: not compromised; luminescence signal produced by E. coli [5]: compromised; luminescence signal produced by K. pneumoniae [6]: does not inhibit signal production
blaKPC-3 peptide-PNA: PNA (SEQ ID NO 2) targeting the TIR of blaKPC-3, conjugated to the peptide KFFKFFKFFK (TCAACGATAT; all peptide nucleic acid (PNA); further chemistry not fully specified) | not reduced | reduced | not reduced | continues to produce a positive signal | no longer produces a positive signal | continues to produce a positive signal |  | 
CC(C)(O/N=C(\C(=O)N[C@@H]1C(=O)N2C(C(=O)[O-])=C(C[n+]3ccccc3)CS[C@H]12)c1csc(N)n1)C(=O)O [ceftazidime] |  |  |  |  |  |  | inhibited | 
C[C@@H](O)[C@H]1C(=O)N2C(C(=O)O)=C(S[C@@H]3CN[C@H](C(=O)N(C)C)C3)[C@H](C)[C@H]12 [meropenem, reference compound] |  |  |  |  |  |  | inhibited | meropenem disk diffusion result ([1]; E. coli 1289011): CRE; meropenem disk diffusion result ([1]; E. coli 1289012): CRE; meropenem disk diffusion result ([1]; E. coli 1289014): CRE; meropenem disk diffusion result ([1]; E. coli 1289018): CSE; reporter assay signal ([2]; 5 μg/mL meropenem, all E. coli strains except 1289018, FIG. 5 column 2): continue to give a positive signal; inhibition in reporter assay ([7]; E. coli 1289027 (blaSHV-positive), 5 μg/mL meropenem, FIG. 6 row 3): inhibited
CN[C@H](CC(C)C)C(=O)N[C@H]1C(=O)N[C@@H](CC(N)=O)C(=O)N[C@H]2C(=O)N[C@H]3C(=O)N[C@H](C(=O)N[C@H](C(=O)O)c4cc(O)cc(O)c4-c4cc3ccc4O)[C@H](O)c3ccc(c(Cl)c3)Oc3cc2cc(c3O[C@@H]2O[C@H](CO)[C@@H](O)[C@H](O)[C@H]2O[C@H]2C[C@](C)(N)[C@H](O)[C@H](C)O2)Oc2ccc(cc2Cl)[C@H]1O [vancomycin] |  |  |  |  |  |  |  | reporter assay signal ([8]; strains expressing a van gene): continue to give a positive signal; reporter assay signal ([8]; strains not carrying a van gene): do not
